Reference: patent publication USRE39862E1, “Unsaturated 14, 15-cyclopropanoandrostanes, a method for their production and pharmaceutical compositions containing these compounds” (Schering AG, priority 2000, dated 2007)

Columns and labels:
[1] = target: T1, progesterone receptor of the rabbit uterus (Oryctolagus cuniculus, UniProt P06186); test: binding to the progesterone receptor of the rabbit uterus (reference substance progesterone)
T1 construct: from tissue; host or cells: rabbit uterus
T1 sequence (P06186 1-930): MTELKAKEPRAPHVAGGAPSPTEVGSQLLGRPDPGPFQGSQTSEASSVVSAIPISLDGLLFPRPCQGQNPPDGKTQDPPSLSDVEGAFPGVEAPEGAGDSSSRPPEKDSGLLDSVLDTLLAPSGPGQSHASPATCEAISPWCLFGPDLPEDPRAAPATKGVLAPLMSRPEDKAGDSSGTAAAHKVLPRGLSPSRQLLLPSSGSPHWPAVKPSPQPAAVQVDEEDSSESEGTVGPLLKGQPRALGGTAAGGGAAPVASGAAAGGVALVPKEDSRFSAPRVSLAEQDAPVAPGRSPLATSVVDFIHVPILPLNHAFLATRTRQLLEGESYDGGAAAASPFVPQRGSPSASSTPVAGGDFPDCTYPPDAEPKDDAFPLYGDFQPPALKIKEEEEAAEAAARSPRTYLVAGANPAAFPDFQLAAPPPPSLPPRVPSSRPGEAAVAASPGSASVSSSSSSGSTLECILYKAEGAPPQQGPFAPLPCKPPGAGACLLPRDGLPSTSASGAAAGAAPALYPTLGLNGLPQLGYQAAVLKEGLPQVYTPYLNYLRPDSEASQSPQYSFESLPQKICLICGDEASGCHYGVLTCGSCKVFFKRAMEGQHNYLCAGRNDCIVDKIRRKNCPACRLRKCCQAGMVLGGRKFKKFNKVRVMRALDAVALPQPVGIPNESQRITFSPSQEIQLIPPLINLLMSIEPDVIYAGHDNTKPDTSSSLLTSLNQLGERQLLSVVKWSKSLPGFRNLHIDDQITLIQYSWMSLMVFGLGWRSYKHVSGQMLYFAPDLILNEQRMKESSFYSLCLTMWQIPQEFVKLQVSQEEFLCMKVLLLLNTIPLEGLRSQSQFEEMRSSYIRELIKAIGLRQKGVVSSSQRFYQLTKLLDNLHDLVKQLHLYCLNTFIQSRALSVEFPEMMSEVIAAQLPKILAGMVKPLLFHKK

[2] = target: T2, androgen receptor of the rat prostate (Rattus norvegicus, UniProt P15207); test: binding to the androgen receptor of the rat prostate (reference substance R 1881); conditions: reference substance 17β-hydroxy-17α-methyl-estra-4,9,11-triene-3-one (R 1881)
T2 construct: to the androgen receptor of the rat prostate; from tissue; host or cells: rat prostate
T2 sequence (P15207 1-902): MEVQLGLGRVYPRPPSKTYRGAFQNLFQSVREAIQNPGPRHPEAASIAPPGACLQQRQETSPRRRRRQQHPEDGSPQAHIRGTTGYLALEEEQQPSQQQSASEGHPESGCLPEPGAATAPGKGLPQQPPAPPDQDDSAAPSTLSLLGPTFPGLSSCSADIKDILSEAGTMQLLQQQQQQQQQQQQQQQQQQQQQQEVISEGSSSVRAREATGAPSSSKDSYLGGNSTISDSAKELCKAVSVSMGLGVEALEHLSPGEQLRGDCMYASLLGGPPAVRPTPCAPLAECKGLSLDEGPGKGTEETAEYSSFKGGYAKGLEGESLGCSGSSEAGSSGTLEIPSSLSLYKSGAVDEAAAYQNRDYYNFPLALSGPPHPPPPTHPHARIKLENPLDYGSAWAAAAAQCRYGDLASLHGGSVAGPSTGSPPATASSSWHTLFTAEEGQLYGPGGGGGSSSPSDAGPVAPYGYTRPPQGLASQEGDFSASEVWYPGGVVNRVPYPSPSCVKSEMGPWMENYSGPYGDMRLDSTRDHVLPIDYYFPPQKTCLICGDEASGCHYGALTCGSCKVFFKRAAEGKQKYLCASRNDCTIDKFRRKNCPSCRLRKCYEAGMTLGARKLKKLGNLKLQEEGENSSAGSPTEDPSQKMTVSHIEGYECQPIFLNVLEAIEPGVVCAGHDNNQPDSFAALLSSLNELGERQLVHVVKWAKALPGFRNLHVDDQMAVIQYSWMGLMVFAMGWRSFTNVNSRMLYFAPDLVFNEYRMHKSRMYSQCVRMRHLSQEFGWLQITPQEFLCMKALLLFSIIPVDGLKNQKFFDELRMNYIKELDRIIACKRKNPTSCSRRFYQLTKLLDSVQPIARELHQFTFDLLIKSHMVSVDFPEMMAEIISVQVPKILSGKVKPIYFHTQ
From the text: The 4-chloro-17β-hydroxy-14α,15α-methylene-androst-4-ene-3-one binds to the extent of 42%±3% to the androgen receptor of the rat prostate (reference substance. 17β-hydroxy-17α-methyl-estra-4,9,11-triene-3-one; R 1881).

[3] = pregnancy maintenance test; conditions: in vivo
Hershberger test = conditions: in vivo

C[C@]12CCC(=O)C(Cl)=C1CC[C@@H]1[C@@H]2CC[C@]2(C)[C@@H](O)C[C@@H]3C[C@]312 [Example 3, 4-Chloro-17β-hydroxy-14α,15α-methylene-androst-4-ene-3-one]
binding to the progesterone receptor [1]: practically no binding | binds to the extent of ... to the androgen receptor [2]: 42%±3% | gestagenic activity in the pregnancy maintenance test [3]: hardly any gestagenic activity | androgenic activity in the Hershberger test (Hershberger test): distinct androgenic activity
